# According to US11807644B2 (PMV Pharmaceuticals, Inc., priority 2020, dated 2023):
# Biological target: T1, recombinant His-tag Y220C p53 DBD protein (Homo sapiens, UniProt P04637, Y220C)
# T1 construct: recombinant His-tag Y220C p53 DBD protein (amino acids #˜94-312)
# Assay: In vitro DNA binding activity assay (TR-FRET): binding of His-tag Y220C p53 DBD to biotin-labeled consensus DNA
# Type: biochemical
# Conditions: SC150 = concentration to increase DNA binding by […], His-tag Y220C p53 DBD, biotin-labeled consensus DNA
row,SMILES,Y220C SC150 (μM)
1,"CCn1cccc1C(=O)NCc1nc(-c2cc3c(N[C@@H]4CCN(C)C[C@@H]4F)cccc3n2CC(F)(F)F)no1 [Compound 534B, 1-ethyl-N-{[3-(4-{[(3S,4R)-3-fluoro-1-methylpiperidin-4-yl]amino}-1-(2,2,2-trifluoroethyl)-1H-indol-2-yl)-1,2,4-oxadiazol-5-yl]methyl}-1H-pyrrole-2-carboxamide]",* (* = 0 μM ≤ SC150 < 0.1 μM)
2,"CC(C)Cn1cccc1C(=O)NCc1nc(-c2cc3c(N[C@@H]4CCN(C)C[C@@H]4F)cccc3n2CC(F)(F)F)no1 [Compound 535B, N-{[3-(4-{[(3S,4R)-3-fluoro-1-methylpiperidin-4-yl]amino}-1-(2,2,2-trifluoroethyl)-1H-indol-2-yl)-1,2,4-oxadiazol-5-yl]methyl}-1-(2-methylpropyl)-1H-pyrrole-2-carboxamide]",* (* = 0 μM ≤ SC150 < 0.1 μM)
3,"COCCN(C)c1nc(C(=O)NCc2nc(-c3cc4c(N[C@@H]5CCN(C)C[C@@H]5F)cccc4n3CC(F)(F)F)no2)cs1 [Compound 536B, N-{[3-(4-{1[(3S,4R)-3-fluoro-1-methylpiperidin-4-yl]amino}-1-(2,2,2-trifluoroethyl)-1H-indol-2-yl)-1,2,4-oxadiazol-5-yl]methyl}-2-[(2-methoxyethyl)(methyl)amino]-1,3-thiazole-4-carboxamide]",* (* = 0 μM ≤ SC150 < 0.1 μM)
4,"COC[C@@H]1CCCN1c1cc(C(=O)NCc2nc(-c3cc4c(N[C@@H]5CCN(C)C[C@@H]5F)cccc4n3CC(F)(F)F)no2)cs1 [Compound 537B, N-{[3-(4-{[(3S,4R)-3-fluoro-1-methylpiperidin-4-yl]amino}-1-(2,2,2-trifluoroethyl)-1H-indol-2-yl)-1,2,4-oxadiazol-5-yl]methyl}-5-[(2S)-2-(methoxymethyl)pyrrolidin-1-yl]thiophene-3-carboxamide]",* (* = 0 μM ≤ SC150 < 0.1 μM)
5,"COCCn1cccc1C(=O)NCc1nc(-c2cc3c(N[C@@H]4CCN(C)C[C@@H]4F)cccc3n2CC(F)(F)F)no1 [Compound 538B, N-{[3-(4-{[(3S,4R)-3-fluoro-1-methylpiperidin-4-yl]amino}-1-(2,2,2-trifluoroethyl)-1H-indol-2-yl)-1,2,4-oxadiazol-5-yl]methyl}-1-(2-methoxyethyl)-1H-pyrrole-2-carboxamide]",* (* = 0 μM ≤ SC150 < 0.1 μM)
6,"CC(C)c1nc(C(=O)NCc2nc(-c3cc4c(N[C@@H]5CCN(C)C[C@@H]5F)cccc4n3CC(F)(F)F)no2)cn1C [Compound 539B, N-{[3-(4-{[(3S,4R)-3-fluoro-1-methylpiperidin-4-yl]amino}-1-(2,2,2-trifluoroethyl)-1H-indol-2-yl)-1,2,4-oxadiazol-5-yl]methyl}-1-methyl-2-(propan-2-yl)-1H-imidazole-4-carboxamide]",* (* = 0 μM ≤ SC150 < 0.1 μM)
7,"CN1CC[C@@H](Nc2cccc3c2cc(-c2noc(CNC(=O)c4cccn4CCF)n2)n3CC(F)(F)F)[C@@H](F)C1 [Compound 540B, N-{[3-(4-{[(3S,4R)-3-fluoro-1-methylpiperidin-4-yl]amino}-1-(2,2,2-trifluoroethyl)-1H-indol-2-yl)-1,2,4-oxadiazol-5-yl]methyl}-1-(2-fluoroethyl)-1H-pyrrole-2-carboxamide]",* (* = 0 μM ≤ SC150 < 0.1 μM)
8,"CN1CC[C@@H](Nc2cccc3c2cc(-c2noc(CNC(=O)c4cn5c(n4)CCCC5)n2)n3CC(F)(F)F)[C@@H](F)C1 [Compound 541B, N-{[3-(4-{[(3S,4R)-3-fluoro-1-methylpiperidin-4-yl]amino}-1-(2,2,2-trifluoroethyl)-1H-indol-2-yl)-1,2,4-oxadiazol-5-yl]methyl}-5H,6H, 7H,8H-imidazo[1,2-a]pyridine-2-carboxamide]",* (* = 0 μM ≤ SC150 < 0.1 μM)
